From patent US8426447B2, “Spiro-tricyclic ring compounds as beta-secretase modulators and methods of use” (Amgen Inc., priority 2008, dated 2013)

What was measured:
BACE1 [1] = molecular target: T1, BACE1 (Homo sapiens, UniProt P56817); assay: In Vitro Enzymatic BACE FRET (Fluorescence Resonance Energy Transfer) Assay; assay type: biochemical
Procedure, shortened: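 Buffer: 0.05 M acetate, pH 4.2, 10% DMSO final, 100 uM genapol. Start: FRET substrate 50 nM. Incubation 1 h. Stop: Tris to neutral pH. Read: fluorescence.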

[2] = tested on: amyloid beta peptide (A-beta) in cerebrospinal fluid and brain; assay: In Vivo Inhibition of Beta-Secretase: reduction of A-beta levels in CSF and brain; conditions: after 4 hrs, mouse or rat
From the text: Several animal models, including mouse, rat, dog, and monkey, may be used to screen for inhibition of beta-secretase activity in vivo following administration of a test compound sample. Animals used in this invention can be wild type, transgenic, or gene knockout animals. […] A separate group of animals receive 2% hydroxypropyl methylcellulose, 1% Tween80 alone, containing no test compound, and serve as a vehicle-control group. At the end of the test period, animals are sacrificed and brain tissues, plasma or cerebrospinal fluid are collected. […] Homogenates are centrifuged at 355,000 g, 4° C. for 30 minutes. CSF or brain supernatants are then analyzed for the presence of A-beta peptide by specific sandwich ELISA assays based on ECL (Electrochemiluminescence) technology. For example, rat Abeta40 is measured using biotinylated-4G8 (Signet) as a capture antibody and Fab40 (an in-house antibody specific to the C-terminal of Abeta40) as a detection antibody.

BACE1 [3] = molecular target: T1, BACE1; assay: In Vitro BACE Cell-based Assay (HEK cell assay): Aβ40 in conditioned medium of cells stably expressing Amyloid Precursor Protein, sandwich ELISA
Procedure, shortened: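 Conditioned medium Aβ40 by ELISA: pAb40 capture 3 h 4° C., biotin-6E10 detection 2 h 4° C., Streptavidin-Europium TRF. IC50 fitted from % control.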

[4] = Table II, read-out: BACE1 FRET assay
[5] = Table II, Aβ40, 24 h incubation, read-out: HEK cell assay
[6] = Table IV, class symbols, read-out: BACE1 FRET assay
[7] = Table IV, class symbols, read-out: HEK cell assay
[8] = HEK cells, read-out: HEK cell assay

T1 sequence (P56817 46-501, species assumed): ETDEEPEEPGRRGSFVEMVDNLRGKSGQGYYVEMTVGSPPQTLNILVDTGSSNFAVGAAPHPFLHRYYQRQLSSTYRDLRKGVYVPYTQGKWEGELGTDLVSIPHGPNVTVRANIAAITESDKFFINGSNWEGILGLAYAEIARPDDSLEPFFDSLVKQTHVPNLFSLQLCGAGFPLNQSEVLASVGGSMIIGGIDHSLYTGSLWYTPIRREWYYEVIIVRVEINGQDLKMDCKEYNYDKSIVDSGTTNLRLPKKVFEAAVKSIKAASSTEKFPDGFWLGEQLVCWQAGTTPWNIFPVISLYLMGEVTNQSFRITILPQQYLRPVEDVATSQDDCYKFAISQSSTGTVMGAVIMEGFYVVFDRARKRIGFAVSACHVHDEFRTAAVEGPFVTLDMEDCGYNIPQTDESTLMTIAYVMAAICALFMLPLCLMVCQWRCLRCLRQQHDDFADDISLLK

Row | IC50 (BACE1 [1]; [6]) [µM] | IC50 (BACE1 [3]; [7]) [µM] | IC50 (BACE1 [1]; read-out: BACE1 FRET assay) [µM] | Compound | percent reduction in CSF A-beta levels ([2]; 10 mpk) [%] | percent reduction in brain A-beta levels ([2]; 10 mpk) [%] | percent reduction in CSF A-beta levels ([2]; 30 mpk) [%] | percent reduction in brain A-beta levels ([2]; 30 mpk) [%] | further results
1 | – | – | – | NC1=N[C@]2(CO1)c1cc(OCC3CC3)ccc1Oc1ccc(-c3cncnc3)cc12 [Example 61, (4S)-2′-(cyclopropylmethoxy)-7′-(5-pyrimidinyl)spiro[1,3-oxazole-4,9′-xanthen]-2-amine] | 50 | 18 | – | – | IC50 (BACE1 [1]; [4]): < 0.1 µM; IC50 (BACE1 [3]; [5]): < 0.1 µM
2 | – | – | – | NC1=N[C@]2(CO1)c1cc(OCC(F)(F)F)ccc1Oc1ccc(-c3cncnc3)cc12 [Example 58, (4S)-2′-(5-pyrimidinyl)-7′-(2,2,2-trifluoroethoxy)spiro[1,3-oxazole-4,9′-xanthen]-2-amine] | 45 | 29 | – | – | IC50 (BACE1 [1]; [4]): < 0.1 µM; IC50 (BACE1 [3]; [5]): 0.1 to 1 µM
3 | < 0.1 | < 0.1 | – | NC1=NC2(CO1)c1cc(-c3cncnc3)ccc1Oc1c(F)cc(C3=CCOCC3)cc12 (stereo in doubt) [Example 295, (R)-2′-(3,6-dihydro-2H-pyran-4-yl)-4′-fluoro-7′-(pyrimidin-5-yl)-5H-spiro[oxazole-4,9′-xanthen]-2-amine] | – | – | 78 | 66 | –
4 | < 0.1 | < 0.1 | – | C[C@@H]1CN(c2ccc3c(c2)[C@]2(COC(N)=N2)c2cc(-c4cccnc4)ccc2O3)C[C@H](C)O1 [Example 662, (4S)-2′-((2R,6S)-2,6-dimethyl-4-morpholinyl)-7′-(3-pyridinyl)spiro[1,3-oxazole-4,9′-xanthen]-2-amine] | – | – | 53 | 34 | –
5 | – | – | – | CC(C)(C)C#Cc1cnc2c(c1)[C@]1(COC(N)=N1)c1cc(-c3cccnc3)ccc1O2 [Example 185b, (5S)-3-(3,3-dimethyl-1-butyn-1-yl)-7-(3-pyridinyl)spiro[chromeno[2,3-b]pyridine-5,4′-[1,3]oxazol]-2′-amine] | – | – | 72 | 58 | IC50 (BACE1 [1]; Table III, IC50's in uM ranges, read-out: BACE1 FRET assay): < 0.1 µM; IC50 (BACE1 [3]; Table III, IC50's in uM ranges, read-out: HEK cell assay): < 0.1 µM
6 | < 0.1 | < 0.1 | – | NC1=N[C@@]2(CO1)c1cc(-c3cccnc3)ccc1Oc1ccc(N3CC(F)(F)C3)cc12 [Example 540, (4S)-2′-(3,3-difluoro-1-azetidinyl)-7′-(3-pyridinyl)spiro[1,3-oxazole-4,9′-xanthen]-2-amine] | 40 | 7 | – | – | –
7 | – | – | – | NC1=N[C@@]2(CO1)c1cc(-c3cccnc3F)ccc1Oc1cnc(-c3cccnc3)cc12 [Example 517, (5S)-7-(2-fluoro-3-pyridinyl)-3-(3-pyridinyl)spiro[chromeno[2,3-c]pyridine-5,4′-[1,3]oxazol]-2′-amine] | 56 | 36 | – | – | IC50 (BACE1 [1]; BACE1 FRET assay (uM)): < 0.1 µM; IC50 (BACE1 [3]; HEK cell assay (uM), HEK cells): < 0.1 µM
8 | – | – | < 0.1 | CC1(C)CN(c2ccc3c(c2)[C@]2(COC(N)=N2)c2cc(-c4cccnc4F)ccc2O3)CCO1 [Example 290, (S)-2′-(2,2-dimethylmorpholino)-7′-(2-fluoropyridin-3-yl)-5H-spiro[oxazole-4,9′-xanthen]-2-amine] | 63 | 33 | – | – | IC50 (BACE1 [3]; [8]): < 0.1 µM
9 | – | – | < 0.1 | COC(C)(C)C#Cc1cc(F)c2c(c1)[C@]1(COC(N)=N1)c1cc(-c3cncnc3)ccc1O2 [Example 673, (4S)-4′-fluoro-2′-(3-methoxy-3-methyl-1-butyn-1-yl)-7′-(5-pyrimidinyl)spiro[1,3-oxazole-4,9′-xanthen]-2-amine] | – | – | 81 | 63 | IC50 (BACE1 [3]; read-out: HEK cell assay): < 0.1 µM
10 | – | – | < 0.1 | CC(C)(F)COc1cc(F)c2c(c1)[C@]1(COC(N)=N1)c1cc(-c3cncnc3)ccc1O2 [Example 293, (S)-4′-fluoro-2′-(2-fluoro-2-methylpropoxy)-7′-(pyrimidin-5-yl)-5H-spiro[oxazole-4,9′-xanthen]-2-amine] | 73 | 63 | – | – | IC50 (BACE1 [3]; [8]): < 0.1 µM
11 | – | – | < 0.1 | CC(C)(C)/C=C/c1cc2c(cn1)Oc1ccc(-c3cncnc3)cc1[C@@]21COC(N)=N1 [Example 291, (S,E)-3-(3,3-dimethylbut-1-enyl)-7-(pyrimidin-5-yl)-5′H-spiro[chromeno[2,3-c]pyridine-5,4′-oxazol]-2′-amine] | 62 | 32 | – | – | IC50 (BACE1 [3]; [8]): < 0.1 µM
12 | – | – | – | CC(C)(C)COc1ccc2c(c1)[C@]1(COC(N)=N1)c1cc(-c3cccnc3)cnc1O2 [Example 92, (5R)-7-(2,2-dimethylpropoxy)-3-(3-pyridinyl)spiro[chromeno[2,3-b]pyridine-5,4′-[1,3]oxazol]-2′-amine] | – | – | 62 | 49 | IC50 (BACE1 [1]; [4]): < 0.1 µM; IC50 (BACE1 [3]; [5]): < 0.1 µM
13 | – | – | < 0.1 | Cn1cc(-c2cc3c(cc2F)Oc2ccc(-c4cccnc4)cc2[C@@]32COC(N)=N2)cn1 [Example 531, (4S)-3′-fluoro-2′-(1-methyl-1H-pyrazol-4-yl)-7′-(3-pyridinyl)spiro[1,3-oxazole-4,9′-xanthen]-2-amine] | 45 | 25 | – | – | IC50 (BACE1 [3]; [8]): < 0.1 µM
14 | < 0.1 | < 0.1 | – | NC1=N[C@@]2(CO1)c1cc(-c3cncnc3)ccc1Oc1cc(F)c(C3=CCOCC3)cc12 [Example 292, (S)-2′-(3,6-dihydro-2H-pyran-4-yl)-3′-fluoro-7′-(pyrimidin-5-yl)-5H-spiro[oxazole-4,9′-xanthen]-2-amine] | 57 | 29 | – | – | –
15 | < 0.1 | < 0.1 | – | NC1=N[C@@]2(CO1)c1cc(-c3ccccc3)ccc1Oc1cnc(C3=CCOCC3)cc12 [Example 545, (5S)-3-(3,6-dihydro-2H-pyran-4-yl)-7-phenylspiro[chromeno[2,3-c]pyridine-5,4′-[1,3]oxazol]-2′-amine] | – | – | 73 | 58 | –
16 | – | – | < 0.1 | CC1(C)CN(c2cc3c(cn2)Oc2ccc(-c4cccnc4)cc2[C@@]32COC(N)=N2)CCO1 [Example 490, (5S)-3-(2,2-dimethyl-4-morpholinyl)-7-(3-pyridinyl)spiro[chromeno[2,3-c]pyridine-5,4′-[1,3]oxazol]-2′-amine] | 28 | 9 | – | – | IC50 (BACE1 [3]; [8]): < 0.1 µM
17 | < 0.1 | < 0.1 | – | CC(C)(C#N)COc1ccc2c(c1)[C@@]1(COC(N)=N1)c1cc(-c3ccccc3)cnc1O2 [Example 817, 3-(((5S)-2′-amino-3-phenylspiro[chromeno[2,3-b]pyridine-5,4′-[1,3]oxazol]-7-yl)oxy)-2,2-dimethylpropanenitrile] | – | – | 44 | 25 | –
18 | < 0.1 | < 0.1 | – | Cc1cc(-c2ccc3c(c2)[C@]2(COC(N)=N2)c2cc(-c4cccnc4F)ccc2O3)on1 [Example 563, (4S)-2′-(2-fluoro-3-pyridinyl)-7′-(3-methyl-5-isoxazolyl)spiro[1,3-oxazole-4,9′-xanthen]-2-amine] | 54 | 41 | – | – | –
19 | < 0.1 | < 0.1 | – | COC(C)(C)C#Cc1cnc2c(c1)[C@]1(COC(N)=N1)c1cc(-c3cnccn3)ccc1O2 [Example 586, (5S)-3-(3-methoxy-3-methyl-1-butyn-1-yl)-7-(2-pyrazinyl)spiro[chromeno[2,3-b]pyridine-5,4′-[1,3]oxazol]-2′-amine] | 32 | 11 | – | – | –
20 | – | – | < 0.1 | NC1=N[C@]2(CO1)c1cc(C#CC3(O)CCC3)ccc1Oc1ccc(-c3cncnc3)cc12 [Example 956, 1-(((4R)-2-amino-7′-(5-pyrimidinyl)spiro[1,3-oxazole-4,9′-xanthen]-2′-yl)ethynyl)cyclobutanol] | – | – | 25 | 8 | IC50 (BACE1 [3]; read-out: HEK cell assay): < 0.1 µM
21 | – | – | < 0.1 | CC(C)(C)C#Cc1cnc2c(c1)[C@]1(COC(N)=N1)c1cc(-c3cncnc3)ccc1O2 [Example 299, (S)-3-(3,3-dimethylbut-1-ynyl)-7-(pyrimidin-5-yl)-5′H-spiro[chromeno[2,3-b]pyridine-5,4′-oxazol]-2′-amine] | – | – | 84 | 81 | IC50 (BACE1 [3]; read-out: HEK cell assay): < 0.1 µM
22 | – | – | < 0.1 | Cc1cnc(F)c(-c2ccc3c(c2)[C@@]2(COC(N)=N2)c2cc(C4=CCOCC4)ncc2O3)c1 [Example 286, (S)-3-(3,6-dihydro-2H-pyran-4-yl)-7-(2-fluoro-5-methylpyridin-3-yl)-5′H-spiro[chromeno[2,3-c]pyridine-5,4′-oxazol]-2′-amine] | 73 | 57 | – | – | IC50 (BACE1 [3]; [8]): < 0.1 µM
